According to patent publication US20230331707A1, “PROGRAMMED CELL NECROSIS INHIBITOR, PREPARATION METHOD THEREFOR, AND USE THEREOF” (Shanghai Institute of Organic Chemistry, Chinese Academy of …, priority 2020, published 2023):
Where two headings read alike, the source gives them in different places.

Experiments:
FADD−/− Jurkat cells = assay: Inhibition of TNF-induced programmed necrosis of FADD deficient Jurkat cells (Cell Titer-Glo viability); type: cell-based; details: for EC50: Homo sapiens, Jurkat, FADD−/− Jurkat cells; for activity of inhibition of programmed necrosis compared with GSK2982772: human FADD-deficient Jurkat cells, TNFα alone or in combination with SM164
Excerpt: (§1) The adopted biological assay protocol was: the effect of compounds on programmed necroptosis of TNF-induced FADD (Fas-Associated Death Domain) deficient Jurkat cells and L929 cells.
(§2) In order to verify the inhibitory effect of the compounds of the present invention on programmed cell necrosis at the cellular level, cell types that is closely related to the RIP1 pathway, namely FADD deficient Jurkat cells (human peripheral blood leukemia T cell strain) and L929 cells, were selected. Two different stimulation methods were used: tumor necrosis factor (TNFα) was used alone, or TNFα was used in combination with mitochondria-derived cysteine aspartate activator (SMAC) SM164. Cells viability was calculated by detecting chemiluminescence values, thereby obtaining the biological activity of the compound on the inhibition of programmed cell necrosis.
(§3) Methods: FADD deficient Jurkat cells: FADD deficient Jurkat cells (human peripheral blood leukemia T cell line) were cultured in vitro. After growing to the logarithmic growth phase, the cells were collected, centrifuged at 1000 rpm for 5 min, the supernatant was discarded, and the cell concentration was adjusted to 2.5×10^5/mL. Cells were seeded into 384-well plates, 40 μl per well. 5 μL of SM164 (50 nM) diluted in cell culture medium and 5 μL of each compound were added to the corresponding wells. After pretreatment at 37° C. for 1 h, 5 μL of TNFα (50 ng/mL) diluted in cell culture medium was added to each well of the stimulation group, and 5 μL of the culture medium was added to the control group. The plate was cultured in a cell incubator (37° C., 5% CO2) for 14 h, and […] of Cell Titer-Glo solution was added to each well, then incubated for 30 min at room temperature, and intracellular ATP level was measured by detecting luminescence. The unstimulated DMSO control wells were taken as 100% cell viability. L929 cells: The L929 cells (mouse fibroblasts) were cultured in vitro, digested and diluted to 6.25×10^4/ml, and the cells were seeded into 384-well plates, 40 μl per well. The plate was placed in a cell incubator (37° C., 5% CO2) for 12 hours. 5 μL of SM164 (500 nM) diluted in cell culture medium and 5 μL of each compound were added to the corresponding wells. After pretreatment at 37° C. for 1 h, 5 μL of TNFα (500 ng/mL) diluted in cell culture medium was added to each well of the stimulation group, and 5 μL of the culture medium was added to the control group. After the plate was cultured for 14 h in a cell incubator (37° C., 5% CO2), 15 μl of Cell Titer-Glo solution was added to each well. The plate was incubated at room temperature for 30 min, and intracellular ATP level was measured by detecting luminescence. The unstimulated DMSO control wells were taken as 100% cell viability. EC50 values of the compounds were calculated using Prism Graphpad statistical software.

L929 cells = assay: Inhibition of TNF-induced programmed necrosis of L929 cells (Cell Titer-Glo viability); type: cell-based, mouse; details: Mus musculus, L929, L929 cells
Excerpt: as §1, §2, §3

[1] = Liver microsomal stability test, human; type: in vitro ADME; details: human, liver microsomes, human liver microsomes, NADPH, 37° C.; read-out: T1/2 (min) Human
Excerpt: (§4) The adopted biological test protocol was: testing the half-life of the compound in human- or mouse-derived liver microsomes.
(§5) Liver microsomes contain many enzymes involved in drug metabolism, especially cytochrome P-450, and therefore it is one of the major tissues involved in drug metabolism in living organisms. There are some correlations between the stability of the compound in liver microsomes and the pharmacogenetic stability thereof in vivo. Therefore, the relative stability of compounds in vivo can be roughly predicted by testing the half-life of different compounds in human- or mouse-derived liver microsomes. The specific methods were as follows:
(§6) Methods: 0.75 μL of 0.5 mM samples (compounds to be tested and control verapamil), 9.38 μL of 20 mg/mL liver microsomes (Human and Mouse) were taken and added to 239.88 μL PBS (on ice), and divided into 30 μL/tube samples respectively. The samples were incubated at 37° C. in a constant temperature water bath for 5 min, and then all samples were taken out. At zero-time, control group was added with 90 μL of ice acetonitrile first, and then added with 15 μL of 3 mM NADPH solution sequentially, and incubated at 37° C. in a constant temperature water bath. The corresponding samples were taken out after 5 min, 10 min, 20 min, 30 min and 60 min, respectively, and quenched by adding 90 μL of ice acetonitrile. All samples were centrifuged at 10000 rpm for 10 min, and the supernatants were taken and placed in a liquid phase vial waiting for LC-MS analysis.

[2] = Liver microsomal stability test, mouse; type: in vitro ADME; details: mouse, liver microsomes, mouse liver microsomes, NADPH, 37° C.; read-out: T1/2 (min) Mouse
Excerpt: as §4, §5, §6

[3] = 14 h, stimulated with TNFα + SM164, read-out: EC50 (μM) FADD−/− Jurkat cells (human) TNFα + SM164
[4] = stimulated with TNFα alone, read-out: EC50 (μM) FADD−/− Jurkat cells (human) TNFα
[5] = stimulated with TNFα + SM164, read-out: EC50 (μM) L929 cells (mouse) TNFα + SM164
[6] = stimulated with TNFα alone, read-out: EC50 (μM) L929 cells (mouse) TNFα

| Compound | EC50 (FADD−/− Jurkat cells; [3]) [nM] | EC50 (FADD−/− Jurkat cells; [4]) [nM] | EC50 (L929 cells; [5]) [nM] | EC50 (L929 cells; [6]) [nM] | activity of inhibition of programmed necrosis compared with GSK2982772 (FADD−/− Jurkat cells) | half-life at 1 µM [1] [min] | half-life at 1 µM [2] [min] |
| --- | --- | --- | --- | --- | --- | --- | --- |
| Cn1ncc(C(=O)NC(C)(C)c2ccc(-n3cnc4c(N)ncnc43)cc2)c1Cc1ccccc1 [QY-12-102] | 28.5 | 7.52 | 6960 | 550 | – | – | – |
| C[C@H](NC(=O)c1c(Cl)nn(C)c1Cc1ccccc1)c1ccc(-n2cnc3c(N)ncnc32)cc1 [QY-13-29] | 0.318 | 0.0916 | 0.462 | 0.317 | – | – | – |
| C[C@H](NC(=O)c1cnn(C)c1Cc1ccccc1)c1ccc(-n2cnc3c(N)ncnc32)cc1 [QY-13-31] | 0.305 | 0.084 | 0.553 | 0.437 | stronger activity | – | – |
| C[C@@H](c1ccc(-n2cnc3c(N)ncnc32)cc1)N1CCc2nn(C)c(Cc3ccccc3)c2C1=O [QY-13-33] | 2.85 | 0.296 | 3.02 | 1.32 | stronger activity | – | – |
| Cn1nnc(C(=O)NCc2ccc(-n3cnc4cc(C#N)ccc43)cc2)c1Cc1ccccc1 [QY-15-59] | – | 0.00767 | 0.001 | 0.001 | stronger activity | – | – |
| CNC(=O)c1ccc2c(ccn2-c2ccc(CNC(=O)c3ncc(Cc4ccccc4)o3)cc2)c1 [XHJ-2-88] | 380 | 70.1 | 3980 | 831 | – | – | – |
| CCCn1nc(C(=O)NCc2ccc(-n3cnc4cc(C(=O)NC)ccc43)cc2)cc1Cc1ccccc1 [XHJ-4-48] | 738 | 109 | > 10000 | 3010 | – | – | – |
| CNC(=O)c1ccc2c(c1)ncn2-c1ccc(CNC(=O)c2cn(Cc3ccccc3)nn2)cc1 [ZSQ-13-35] | 1590 | 233 | > 10000 | > 10000 | – | – | – |
| CNC(=O)c1ccc2c(c1)ncn2-c1ccc(CNC(=O)c2n[nH]c(Cc3ccccc3)n2)cc1 [ZSQ-13-46] | > 10000 | > 10000 | > 10000 | > 10000 | – | – | – |
| Cn1nc(C(=O)NCc2ccc(-n3ncc4c(N)ncnc43)cc2)cc1Cc1ccccc1 [ZSQ-15-48] | 451 | 70.9 | > 10000 | 6550 | – | – | – |
| CNC(=O)c1ccc2c(ccn2-c2ccc(CNC(=O)c3cc(Cc4ccccc4)n(C)n3)cc2)c1 [ZSQ-15-68] | 670 | 115 | 1800 | 610 | – | – | – |
| Cn1nc(C(=O)NCc2ccc(-n3ccc4c(N)nccc43)cc2)cc1Cc1ccccc1 [ZSQ-16-3] | > 10000 | 361 | > 10000 | 2320 | – | – | – |
| Nc1ncnc2c1ncn2-c1ccc(CNC(=O)c2cn(Cc3ccccc3)cn2)cc1 [ZSQ-21-13] | 39 | 42.7 | – | – | – | 577 | 99 |
| Nc1ncnc2c1ncn2-c1ccc(CNC(=O)c2ccc(F)n2Cc2ccccc2)cc1 [ZSQ-21-30] | 1.6 | 0.0853 | 7.41 | 0.916 | – | – | – |
| Cn1nc2c(c1Cc1ccccc1)C(=O)N(Cc1ccc(-n3cnc4c(N)ncnc43)cc1)CC2 [ZSQ-22-96] | 2.26 | 0.203 | 38.6 | 8.38 | – | – | – |
